Test results taken from patent publication US11450448B2, “Use of a linear octafluorobutene as a dielectric compound in an environmentally safe dielectric-insulation or arc-extinction fluid” (HITACHI ENERGY SWITZERLAND AG, priority 2016, dated 2022).

How the values were obtained:
[1] = Decomposition tests: accelerated ageing with GIS materials; type: physicochemical; details: aged at 100° C. with Cu/Al plates, EPDM sealings, zeolites, SiO2, paints, grease, nitrile-butadiene rubber; analysed after 8 weeks of exposure
Experimental: In order to assess the material compatibility of octafluoro-2-butene towards material typically used in a GIS, the following components were aged at accelerated conditions (at 100° C.) with octafluoro-2-butene gas:
Both the gas as well as the components exposed to the gas were analysed after 8 weeks of exposure.

rats = experiment: median lethal concentration (LC50) measured on rats; type: in vivo; details: compared with C4N and C5K
Description: Specifically, the term “environmentally safe” also means that the dielectric-insulation or arc-extinction fluid has a relatively low toxicity level. More specifically, the median lethal dose (LC50; lethal concentration 50%; measured on rats) of the dielectric compound used in the environmentally safe dielectric-insulation or arc-extinction fluid is higher than 4′000 ppm, preferably higher than 5′000 ppm and more preferably higher than 6′000 ppm. Thus, the dielectric compound used according to the present invention ranges within the same toxicity class as previously mentioned C4N (having a much higher GWP than the dielectric compound used according to the present invention) and C5K (having a much higher boiling point than the dielectric compound used according to the present invention).

## FC(=C(F)C(F)(F)F)C(F)(F)F [octafluoro-2-butene]
[1]
  decomposition of the gas: For none of the tests, a decomposition of the octafluoro-2-butene was determined

## linear octafluorobutene [linear octafluorobutenes]
rats
  toxicity class: ranges within the same toxicity class as for example heptafluoroisobutyronitrile (C4N) and 1,1,1,3,4,4,4-heptafluoro-3-(trifluoromethyl)-butan-2-one (C5K)
